Assay results reported in patent US8003785B2 (Takeda Pharmaceutical Company Limited, priority 2008, dated 2011).

target: T1, PLK1 (Homo sapiens, UniProt P53350); test: Biochemical Characterization Assay: HTRF kinase assay, GST-PLK1 phosphorylation of GST-p53; conditions: GST-PLK1, GST-p53 substrate, ATP
T1 construct: Full-length, active GST-PLK1 is purified from Sf9 insect cells; made in house; host or cells: Sf9 insect cells
Outline: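 HTRF read-out of p53 phosphorylation: after EDTA stop, anti-phospho-p53 antibody bound 30 min at 37 °C in HEPES pH 7 buffer, with Eu-anti-rabbit/APC-anti-GST detection. Kinase step used full-length Sf9-expressed GST-PLK1 (3 ug/mL) and E. coli GST-p53 substrate, 35 min at 37 °C.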

T1 sequence (P53350 whole entry): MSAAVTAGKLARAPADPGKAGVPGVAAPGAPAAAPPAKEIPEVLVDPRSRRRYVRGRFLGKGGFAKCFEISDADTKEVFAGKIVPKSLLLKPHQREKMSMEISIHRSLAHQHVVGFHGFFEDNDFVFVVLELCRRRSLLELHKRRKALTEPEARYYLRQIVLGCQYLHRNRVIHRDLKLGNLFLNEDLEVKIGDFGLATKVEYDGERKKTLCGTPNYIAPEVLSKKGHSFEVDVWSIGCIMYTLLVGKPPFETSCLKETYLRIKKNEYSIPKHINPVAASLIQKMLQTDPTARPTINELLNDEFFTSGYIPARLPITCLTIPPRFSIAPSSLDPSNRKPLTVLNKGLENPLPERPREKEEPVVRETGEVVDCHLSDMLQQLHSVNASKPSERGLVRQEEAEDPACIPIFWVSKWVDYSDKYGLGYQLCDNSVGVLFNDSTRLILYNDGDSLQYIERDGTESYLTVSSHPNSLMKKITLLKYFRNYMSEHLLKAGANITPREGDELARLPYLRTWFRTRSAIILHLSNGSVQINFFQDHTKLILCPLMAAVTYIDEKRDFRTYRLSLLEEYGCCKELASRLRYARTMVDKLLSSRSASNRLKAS

Structure (SMILES)	IC50 [nM]
COc1cc(C(=O)NCCNc2ccccc2)ccc1Nc1ncc2c(n1)N(C1CCCC1)CC(F)(F)C(=O)N2C [Example I-119, 4-(9-cyclopentyl-7,7-difluoro-5-methyl-6-oxo-6,7,8,9-tetrahydro-5H-pyrimido[4,5-b][1,4]diazepin-2-ylamino)-3-methoxy-N-(2-phenylamino-ethyl)-benzamide]	51 to 500
COc1cc(C(=O)NCC(O)CN2CCN(C(=O)OC(C)(C)C)CC2)ccc1Nc1ncc2c(n1)N(C1CCCC1)CC(F)(F)C(=O)N2C (stereo not drawn) [Example I-120, 4-{3-[4-(9-cyclopentyl-7,7-difluoro-5-methyl-6-oxo-6,7,8,9-tetrahydro-5H-pyrimido[4,5-b][1,4]diazepin-2-ylamino)-3-methoxy-benzoylamino]-2-hydroxy-propyl}-piperazine-1-carboxylic acid tert-butyl ester]	51 to 500
COc1cc(C(=O)N2CCCCC2)ccc1Nc1ncc2c(n1)N(C1CCCC1)CC(F)(F)C(=O)N2C [Example I-126, 9-cyclopentyl-7,7-difluoro-2-[2-methoxy-4-(piperidine-1-carbonyl)-phenylamino]-5-methyl-5,7,8,9-tetrahydro-pyrimido[4,5-b][1,4]diazepin-6-one]	51 to 500
NC(=O)c1ccc(Nc2ncc3c(n2)N(C2CCCC2)CC(F)(F)C(=O)N3)cc1 [Example I-132, 4-(9-cyclopentyl-7,7-difluoro-6-oxo-6,7,8,9-tetrahydro-5H-pyrimido[4,5-b][1,4]diazepin-2-ylamino)-benzamide]	> 5000
CNC(=O)c1ccc(Nc2ncc3c(n2)N(C2CCCC2)CC(F)(F)C(=O)N3)cc1 [Example I-133, 4-(9-cyclopentyl-7,7-difluoro-6-oxo-6,7,8,9-tetrahydro-5H-pyrimido[4,5-b][1,4]diazepin-2-ylamino)-N-methyl-benzamide]	500 to 5000
CN1CCC(NC(=O)c2ccc(Nc3ncc4c(n3)N(C3CCCC3)CC(F)(F)C(=O)N4)cc2)CC1 [Example I-134, 4-(9-cyclopentyl-7,7-difluoro-6-oxo-6,7,8,9-tetrahydro-5H-pyrimido[4,5-b][1,4]diazepin-2-ylamino)-N-(1-methyl-piperidin-4-yl)-benzamide]	51 to 500
CN(C)CCCNC(=O)c1ccc(Nc2ncc3c(n2)N(C2CCCC2)CC(F)(F)C(=O)N3)cc1 [Example I-135, 4-(9-cyclopentyl-7,7-difluoro-6-oxo-6,7,8,9-tetrahydro-5H-pyrimido[4,5-b][1,4]diazepin-2-yl-amino)-N-(3-dimethyl-amino-propyl)-benzamide]	500 to 5000
O=C(NC1CCOCC1)c1ccc(Nc2ncc3c(n2)N(C2CCCC2)CC(F)(F)C(=O)N3)cc1 [Example I-136, 4-(9-cyclopentyl-7,7-difluoro-6-oxo-6,7,8,9-tetrahydro-5H-pyrimido[4,5-b][1,4]diazepin-2-ylamino)-N-(tetrahydro-pyran-4-yl)-benzamide]	500 to 5000
COc1cc(C(=O)NC2CCN(C)CC2)ccc1Nc1ncc2c(n1)N(C1CCCC1)CC(F)(F)C(=O)N2 [Example I-137, 4-(9-cyclopentyl-7,7-difluoro-6-oxo-6,7,8,9-tetrahydro-5H-pyrimido[4,5-b][1,4]diazepin-2-ylamino)-3-methoxy-N-(1-methyl-piperidin-4-yl)-benzamide]	51 to 500
CCN1C(=O)C(F)(F)CN(C2CCCC2)c2nc(Nc3ccc(C(N)=O)cc3)ncc21 [Example I-139, 4-(9-cyclopentyl-5-ethyl-7,7-difluoro-6-oxo-6,7,8,9-tetrahydro-5H-pyrimido[4,5-b][1,4]diazepin-2-ylamino)-benzamide]	500 to 5000
CCN1C(=O)C(F)(F)CN(C2CCCC2)c2nc(Nc3ccc(C(=O)NC)cc3)ncc21 [Example I-140, 4-(9-cyclopentyl-5-ethyl-7,7-difluoro-6-oxo-6,7,8,9-tetrahydro-5H-pyrimido[4,5-b][1,4]diazepin-2-ylamino)-N-methyl-benzamide]	500 to 5000

Now from value to molecule:

IC50 [nM]	Structure (SMILES)
1 to 50	COc1cc(C(=O)NN2CCN(C)CC2)ccc1Nc1ncc2c(n1)N(C1CCCC1)CC(F)(F)C(=O)N2C [Example I-118, 4-(9-cyclopentyl-7,7-difluoro-5-methyl-6-oxo-6,7,8,9-tetrahydro-5H-pyrimido[4,5-b][1,4]diazepin-2-ylamino)-3-methoxy-N-(4-methyl-piperazin-1-yl) benzamide]
1 to 50	COc1cc(C(=O)NCC(O)CN2CCNCC2)ccc1Nc1ncc2c(n1)N(C1CCCC1)CC(F)(F)C(=O)N2C (stereo not drawn) [Example I-121, 4-(9-cyclopentyl-7,7-difluoro-5-methyl-6-oxo-6,7,8,9-tetrahydro-5H-pyrimido[4,5-b][1,4]diazepin-2-ylamino)-N-(2-hydroxy-3-piperazin-1-yl-propyl)-3-methoxy-benzamide]
1 to 50	COc1cc(C(=O)NC2CCN(Cc3ccccc3)CC2)ccc1Nc1ncc2c(n1)N(C1CCCC1)CC(F)(F)C(=O)N2C [Example I-122, N-(1-benzyl-piperidin-4-yl)-4-(9-cyclopentyl-7,7-difluoro-5-methyl-6-oxo-6,7,8,9-tetrahydro-5H-pyrimido[4,5-b][1,4]diazepin-2-ylamino)-3-methoxy-benzamide]
1 to 50	CCN(CC)CCCNC(=O)c1ccc(Nc2ncc3c(n2)N(C2CCCC2)CC(F)(F)C(=O)N3C)c(OC)c1 [Example I-123, 4-(9-cyclopentyl-7,7-difluoro-5-methyl-6-oxo-6,7,8,9-tetrahydro-5H-pyrimido[4,5-b][1,4]diazepin-2-ylamino)-N-(3-diethylamino-propyl)-3-methoxy-benzamide]
1 to 50	COc1cc(C(=O)NC2CCOCC2)ccc1Nc1ncc2c(n1)N(C1CCCC1)CC(F)(F)C(=O)N2C [Example I-124]
1 to 50	COc1cc(C(=O)N(C)C)ccc1Nc1ncc2c(n1)N(C1CCCC1)CC(F)(F)C(=O)N2C [Example I-125, 4-(9-cyclopentyl-7,7-difluoro-5-methyl-6-oxo-6,7,8,9-tetrahydro-5H-pyrimido[4,5-b][1,4]diazepin-2-ylamino)-3-methoxy-N,N-dimethyl-benzamide]
1 to 50	COc1cc(C(=O)N2CCOCC2)ccc1Nc1ncc2c(n1)N(C1CCCC1)CC(F)(F)C(=O)N2C [Example I-127, 9-cyclopentyl-7,7-difluoro-2-[2-methoxy-4-(morpholine-4-carbonyl)-phenylamino]-5-methyl-5,7,8,9-tetrahydro-pyrimido[4,5-b][1,4]diazepin-6-one]
1 to 50	COc1cc(C(=O)N2CCN(C)CC2)ccc1Nc1ncc2c(n1)N(C1CCCC1)CC(F)(F)C(=O)N2C [Example I-128, 9-cyclopentyl-7,7-difluoro-2-[2-methoxy-4-(4-methyl-piperazine-1-carbonyl)-phenylamino]-5-methyl-5,7,8,9-tetrahydro-pyrimido[4,5-b][1,4]diazepin-6-one]
1 to 50	COc1cc(C(=O)Nc2ccncc2)ccc1Nc1ncc2c(n1)N(C1CCCC1)CC(F)(F)C(=O)N2C [Example I-129, 4-(9-cyclopentyl-7,7-difluoro-5-methyl-6-oxo-6,7,8,9-tetrahydro-5H-pyrimido[4,5-b][1,4]diazepin-2-ylamino)-3-methoxy-N-pyridin-4-yl-benzamide]
1 to 50	COc1cc(C(=O)Nc2cccnc2)ccc1Nc1ncc2c(n1)N(C1CCCC1)CC(F)(F)C(=O)N2C [Example I-130, 4-(9-cyclopentyl-7,7-difluoro-5-methyl-6-oxo-6,7,8,9-tetrahydro-5H-pyrimido[4,5-b][1,4]diazepin-2-ylamino)-3-methoxy-N-pyridin-3-yl-benzamide]
